In ChEMBL document CHEMBL4800728, “Data for DCP probe JNJ-54119936” (2021):

Tests used:
[1] = molecular target: Histamine H1 receptor (Homo sapiens) (UniProt P35367); conditions: Compound concentration 10.0 uM
[2] = molecular target: Serine/threonine-protein kinase PLK3 (Homo sapiens) (UniProt Q9H4B4); test: Plk3 Invitrogen kinase panel; conditions: Compound concentration 10.0 uM
[3] = molecular target: Proto-oncogene tyrosine-protein kinase receptor Ret (Homo sapiens) (UniProt P07949); test: Ret Invitrogen kinase panel; conditions: Compound concentration 10.0 uM
[4] = molecular target: Serine/threonine-protein kinase Nek2 (Homo sapiens) (UniProt P51955); test: NEK2 Invitrogen kinase panel; conditions: Compound concentration 10.0 uM
[5] = molecular target: Sodium-dependent dopamine transporter (Homo sapiens) (UniProt Q01959); test: dopamine transporter (h) CEREP screen
[6] = molecular target: Oxysterols receptor LXR-alpha (Homo sapiens) (UniProt Q13133); test: LXRalpha Indigo Bioscience nuclear receptor screen; conditions: Compound concentration 0.3 uM
[7] = molecular target: T1, Muscarinic acetylcholine receptor M1 (Homo sapiens) (UniProt P11229); test: M1 (h) CEREP screen
T1 sequence (whole entry): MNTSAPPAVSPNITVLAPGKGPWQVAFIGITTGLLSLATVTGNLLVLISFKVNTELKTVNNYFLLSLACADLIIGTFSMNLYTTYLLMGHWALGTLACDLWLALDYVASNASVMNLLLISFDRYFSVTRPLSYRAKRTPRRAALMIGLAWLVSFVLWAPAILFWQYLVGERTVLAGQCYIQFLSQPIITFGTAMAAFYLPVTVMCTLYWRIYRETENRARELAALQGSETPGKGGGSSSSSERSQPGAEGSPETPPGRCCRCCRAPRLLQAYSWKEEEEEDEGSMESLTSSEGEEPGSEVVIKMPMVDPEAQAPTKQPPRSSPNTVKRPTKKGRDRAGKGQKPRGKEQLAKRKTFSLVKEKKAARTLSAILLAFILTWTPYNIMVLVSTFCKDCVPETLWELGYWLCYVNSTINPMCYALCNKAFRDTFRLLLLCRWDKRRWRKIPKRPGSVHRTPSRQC

[8] = molecular target: GABA-A receptor; anion channel (Homo sapiens) (UniProt P14867+P47870+P18507+P28472+P48169+Q99928+Q9UN88+P34903+O00591+O14764+Q8N1C3+P18505+P78334+P47869+P31644+Q16445); test: GABA (non selective) CEREP screen; type: protein-complex assay; conditions: Compound concentration 1.0 uM
[9] = molecular target: Proto-oncogene tyrosine-protein kinase Src (Homo sapiens) (UniProt P12931); test: SRC Invitrogen kinase panel; conditions: Compound concentration 10.0 uM
[10] = molecular target: Alpha-1A adrenergic receptor (Homo sapiens) (UniProt P35348); conditions: Compound concentration 10.0 uM
[11] = molecular target: Alpha-1D adrenergic receptor (Homo sapiens) (UniProt P25100); conditions: Compound concentration 10.0 uM
[12] = molecular target: 5-hydroxytryptamine receptor 5A (Homo sapiens) (UniProt P47898); conditions: Compound concentration 10.0 uM
[13] = molecular target: Epidermal growth factor receptor (Homo sapiens) (UniProt P00533); test: EGFR Invitrogen kinase panel; conditions: Compound concentration 10.0 uM
[14] = molecular target: Estrogen receptor beta (Homo sapiens) (UniProt Q92731); test: ERbeta In-house nuclear receptor screen; conditions: Compound concentration 3.0 uM
[15] = molecular target: D(1A) dopamine receptor (Homo sapiens) (UniProt P21728); test: D1 (h) CEREP screen; conditions: Compound concentration 10.0 uM
[16] = molecular target: T2, Oxysterols receptor LXR-beta (Homo sapiens) (UniProt P55055); test: LXRbeta Indigo Bioscience nuclear receptor screen
T2 sequence (whole entry): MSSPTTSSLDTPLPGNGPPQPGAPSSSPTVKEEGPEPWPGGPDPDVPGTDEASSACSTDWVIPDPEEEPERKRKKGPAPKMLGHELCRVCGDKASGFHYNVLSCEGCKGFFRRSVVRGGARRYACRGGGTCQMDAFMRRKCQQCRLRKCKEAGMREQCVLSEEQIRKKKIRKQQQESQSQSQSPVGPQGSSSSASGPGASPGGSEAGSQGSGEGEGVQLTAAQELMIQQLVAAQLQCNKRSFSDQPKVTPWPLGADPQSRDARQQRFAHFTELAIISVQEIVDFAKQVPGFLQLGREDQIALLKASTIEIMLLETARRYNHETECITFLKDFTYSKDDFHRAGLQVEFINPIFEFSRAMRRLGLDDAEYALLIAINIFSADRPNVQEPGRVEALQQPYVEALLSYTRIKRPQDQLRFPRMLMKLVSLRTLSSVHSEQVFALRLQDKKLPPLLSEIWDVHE

[17] = molecular target: Nuclear receptor ROR-beta (Homo sapiens) (UniProt Q92753); test: ThermoFluor Binding Assay (RORB)
[18] = molecular target: Interleukin-1 receptor-associated kinase 4 (Homo sapiens) (UniProt Q9NWZ3); test: IRAK4 Invitrogen kinase panel; conditions: Compound concentration 10.0 uM
[19] = molecular target: Peroxisome proliferator-activated receptor gamma (Homo sapiens, UniProt P37231); test: (§1) PPARgamma In-house nuclear receptor screen
[20] = molecular target: T3, Peroxisome proliferator-activated receptor gamma (Homo sapiens) (UniProt P37231); test: as §1; conditions: Compound concentration 3.0 uM
T3 sequence (whole entry): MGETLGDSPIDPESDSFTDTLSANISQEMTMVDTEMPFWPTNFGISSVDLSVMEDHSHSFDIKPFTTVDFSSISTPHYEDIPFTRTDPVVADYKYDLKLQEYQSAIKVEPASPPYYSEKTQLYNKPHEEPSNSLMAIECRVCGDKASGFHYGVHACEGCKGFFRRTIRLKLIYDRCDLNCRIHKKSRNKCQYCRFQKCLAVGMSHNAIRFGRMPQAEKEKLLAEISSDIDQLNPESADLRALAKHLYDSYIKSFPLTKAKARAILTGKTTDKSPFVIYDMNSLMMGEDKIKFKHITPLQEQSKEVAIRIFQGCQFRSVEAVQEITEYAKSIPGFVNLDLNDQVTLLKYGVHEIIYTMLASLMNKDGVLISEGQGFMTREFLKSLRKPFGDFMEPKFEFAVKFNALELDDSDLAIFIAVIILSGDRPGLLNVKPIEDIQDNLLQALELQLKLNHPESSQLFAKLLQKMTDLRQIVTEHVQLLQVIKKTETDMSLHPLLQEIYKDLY

[21] = molecular target: T1, Muscarinic acetylcholine receptor M1 (Homo sapiens); conditions: Compound concentration 10.0 uM
[22] = molecular target: Protein kinase C alpha type (Homo sapiens) (UniProt P17252); test: PKCalpha Invitrogen kinase panel; conditions: Compound concentration 10.0 uM
[23] = molecular target: Vitamin D3 receptor (Homo sapiens) (UniProt P11473); test: VDR Indigo Bioscience nuclear receptor screen
[24] = molecular target: D(3) dopamine receptor (Homo sapiens) (UniProt P35462); conditions: Compound concentration 10.0 uM
[25] = molecular target: Serine/threonine-protein kinase PLK1 (Homo sapiens) (UniProt P53350); test: Plk1 Invitrogen kinase panel; conditions: Compound concentration 10.0 uM

Chain of Sodium-dependent dopamine transporter (Homo sapiens) (Q01959 whole entry): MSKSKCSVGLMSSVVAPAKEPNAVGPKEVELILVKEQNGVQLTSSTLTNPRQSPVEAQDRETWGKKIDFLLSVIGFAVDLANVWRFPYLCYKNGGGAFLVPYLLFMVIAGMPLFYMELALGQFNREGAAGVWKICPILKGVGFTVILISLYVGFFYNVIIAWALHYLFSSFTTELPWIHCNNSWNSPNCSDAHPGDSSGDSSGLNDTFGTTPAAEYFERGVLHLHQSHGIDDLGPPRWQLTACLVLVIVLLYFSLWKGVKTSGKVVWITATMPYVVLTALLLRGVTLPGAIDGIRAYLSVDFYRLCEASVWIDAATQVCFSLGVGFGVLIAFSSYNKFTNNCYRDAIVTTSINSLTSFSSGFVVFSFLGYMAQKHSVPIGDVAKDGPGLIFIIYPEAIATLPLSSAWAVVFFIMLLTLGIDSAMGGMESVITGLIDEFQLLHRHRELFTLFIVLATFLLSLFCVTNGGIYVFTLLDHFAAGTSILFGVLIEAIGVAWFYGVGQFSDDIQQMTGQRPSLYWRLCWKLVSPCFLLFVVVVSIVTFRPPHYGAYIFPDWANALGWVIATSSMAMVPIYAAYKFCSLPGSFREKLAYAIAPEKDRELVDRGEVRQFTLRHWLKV
Chain of Vitamin D3 receptor (Homo sapiens) (P11473 whole entry): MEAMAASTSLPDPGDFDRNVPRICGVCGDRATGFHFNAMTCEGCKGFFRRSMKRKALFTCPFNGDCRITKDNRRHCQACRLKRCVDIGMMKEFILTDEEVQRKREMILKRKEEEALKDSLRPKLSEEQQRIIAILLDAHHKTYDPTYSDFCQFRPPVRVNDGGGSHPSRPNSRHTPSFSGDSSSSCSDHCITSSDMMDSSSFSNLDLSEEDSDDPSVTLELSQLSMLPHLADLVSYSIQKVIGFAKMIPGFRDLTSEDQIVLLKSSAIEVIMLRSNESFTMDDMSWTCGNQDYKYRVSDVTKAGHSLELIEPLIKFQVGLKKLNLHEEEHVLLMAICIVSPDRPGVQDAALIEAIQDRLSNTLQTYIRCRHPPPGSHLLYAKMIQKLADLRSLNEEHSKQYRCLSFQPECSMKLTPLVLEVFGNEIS
Chain of Oxysterols receptor LXR-alpha (Homo sapiens) (Q13133 whole entry): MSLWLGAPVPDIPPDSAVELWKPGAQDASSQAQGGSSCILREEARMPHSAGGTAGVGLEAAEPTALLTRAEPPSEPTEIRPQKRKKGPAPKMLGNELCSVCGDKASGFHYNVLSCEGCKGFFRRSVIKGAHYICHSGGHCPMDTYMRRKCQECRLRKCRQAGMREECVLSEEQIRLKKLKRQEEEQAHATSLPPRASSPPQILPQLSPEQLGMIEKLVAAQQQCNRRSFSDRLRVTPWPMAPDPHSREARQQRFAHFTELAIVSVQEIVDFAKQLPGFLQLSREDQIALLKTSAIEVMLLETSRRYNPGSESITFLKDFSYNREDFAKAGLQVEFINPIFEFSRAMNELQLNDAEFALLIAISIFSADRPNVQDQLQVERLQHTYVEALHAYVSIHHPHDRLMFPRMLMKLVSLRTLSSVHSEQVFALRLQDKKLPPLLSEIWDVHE
Chain of Nuclear receptor ROR-beta (Homo sapiens) (Q92753 whole entry): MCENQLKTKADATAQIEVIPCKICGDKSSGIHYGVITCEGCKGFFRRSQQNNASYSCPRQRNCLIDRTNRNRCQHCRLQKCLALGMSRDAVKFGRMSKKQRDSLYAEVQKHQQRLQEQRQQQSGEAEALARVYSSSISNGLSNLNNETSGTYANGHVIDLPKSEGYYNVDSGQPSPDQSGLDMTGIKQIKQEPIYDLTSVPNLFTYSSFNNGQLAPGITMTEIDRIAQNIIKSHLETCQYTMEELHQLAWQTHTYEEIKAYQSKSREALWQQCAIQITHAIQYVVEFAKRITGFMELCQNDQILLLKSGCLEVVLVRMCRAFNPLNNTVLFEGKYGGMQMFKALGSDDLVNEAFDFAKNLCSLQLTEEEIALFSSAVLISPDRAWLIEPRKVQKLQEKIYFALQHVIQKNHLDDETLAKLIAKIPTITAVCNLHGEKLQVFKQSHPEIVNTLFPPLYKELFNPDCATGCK
Chain of Proto-oncogene tyrosine-protein kinase Src (Homo sapiens) (P12931 2-536 limits assumed): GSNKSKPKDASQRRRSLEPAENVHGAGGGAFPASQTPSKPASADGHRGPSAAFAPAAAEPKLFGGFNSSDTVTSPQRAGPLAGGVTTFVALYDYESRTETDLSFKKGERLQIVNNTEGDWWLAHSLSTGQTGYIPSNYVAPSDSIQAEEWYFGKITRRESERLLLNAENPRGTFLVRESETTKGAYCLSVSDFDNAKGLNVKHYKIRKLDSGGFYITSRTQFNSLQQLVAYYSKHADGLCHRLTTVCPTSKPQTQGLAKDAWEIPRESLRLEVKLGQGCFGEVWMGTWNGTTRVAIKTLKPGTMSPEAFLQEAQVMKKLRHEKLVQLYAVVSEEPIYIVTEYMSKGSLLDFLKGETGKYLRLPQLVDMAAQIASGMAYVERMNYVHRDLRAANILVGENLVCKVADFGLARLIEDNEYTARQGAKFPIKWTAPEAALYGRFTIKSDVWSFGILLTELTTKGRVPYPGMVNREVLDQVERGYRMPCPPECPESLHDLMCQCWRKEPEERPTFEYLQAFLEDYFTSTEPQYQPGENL
Chain of Serine/threonine-protein kinase PLK3 (Homo sapiens) (Q9H4B4 whole entry, looked up): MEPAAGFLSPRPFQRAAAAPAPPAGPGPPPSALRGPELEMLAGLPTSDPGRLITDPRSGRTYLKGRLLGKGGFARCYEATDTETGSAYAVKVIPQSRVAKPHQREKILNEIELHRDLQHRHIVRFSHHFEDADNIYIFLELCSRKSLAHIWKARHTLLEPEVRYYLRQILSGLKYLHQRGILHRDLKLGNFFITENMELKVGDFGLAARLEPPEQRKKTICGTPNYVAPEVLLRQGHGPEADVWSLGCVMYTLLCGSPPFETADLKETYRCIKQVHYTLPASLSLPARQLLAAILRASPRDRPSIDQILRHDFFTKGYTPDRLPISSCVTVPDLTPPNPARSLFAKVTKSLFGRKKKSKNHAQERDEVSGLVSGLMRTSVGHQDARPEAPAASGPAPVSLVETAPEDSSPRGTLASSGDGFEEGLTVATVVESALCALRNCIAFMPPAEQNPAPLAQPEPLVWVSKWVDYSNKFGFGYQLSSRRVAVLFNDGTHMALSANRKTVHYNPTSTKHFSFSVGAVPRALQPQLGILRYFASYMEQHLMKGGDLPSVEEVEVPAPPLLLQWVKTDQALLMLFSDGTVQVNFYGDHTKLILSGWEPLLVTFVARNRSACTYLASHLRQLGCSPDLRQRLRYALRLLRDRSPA
Chain of D(3) dopamine receptor (Homo sapiens) (P35462 whole entry): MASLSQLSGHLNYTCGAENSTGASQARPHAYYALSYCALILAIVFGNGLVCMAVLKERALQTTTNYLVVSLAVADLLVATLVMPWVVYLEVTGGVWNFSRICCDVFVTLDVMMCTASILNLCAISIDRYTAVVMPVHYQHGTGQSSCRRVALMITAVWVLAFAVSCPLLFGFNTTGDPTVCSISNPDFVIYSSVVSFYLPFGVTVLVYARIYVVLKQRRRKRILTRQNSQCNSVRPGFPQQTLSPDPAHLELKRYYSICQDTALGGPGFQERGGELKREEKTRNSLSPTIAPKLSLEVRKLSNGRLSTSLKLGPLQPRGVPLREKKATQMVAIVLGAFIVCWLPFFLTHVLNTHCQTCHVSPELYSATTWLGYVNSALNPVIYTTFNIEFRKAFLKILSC
Chain of Estrogen receptor beta (Homo sapiens) (Q92731 whole entry): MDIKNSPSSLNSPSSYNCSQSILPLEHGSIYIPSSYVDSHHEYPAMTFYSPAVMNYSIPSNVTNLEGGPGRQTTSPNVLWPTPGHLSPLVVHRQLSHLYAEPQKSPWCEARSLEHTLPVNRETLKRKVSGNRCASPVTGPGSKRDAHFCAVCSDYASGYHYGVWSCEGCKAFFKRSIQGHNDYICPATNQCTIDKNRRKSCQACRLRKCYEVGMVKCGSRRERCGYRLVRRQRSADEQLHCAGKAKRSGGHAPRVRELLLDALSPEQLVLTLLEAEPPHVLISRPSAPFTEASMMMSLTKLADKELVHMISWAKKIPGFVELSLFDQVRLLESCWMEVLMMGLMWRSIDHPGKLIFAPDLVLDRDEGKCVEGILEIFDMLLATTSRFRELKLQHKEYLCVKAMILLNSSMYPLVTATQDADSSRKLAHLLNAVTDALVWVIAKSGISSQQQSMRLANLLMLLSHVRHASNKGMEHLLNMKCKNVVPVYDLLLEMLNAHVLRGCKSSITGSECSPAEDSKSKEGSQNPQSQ
Chain of Interleukin-1 receptor-associated kinase 4 (Homo sapiens) (Q9NWZ3 whole entry): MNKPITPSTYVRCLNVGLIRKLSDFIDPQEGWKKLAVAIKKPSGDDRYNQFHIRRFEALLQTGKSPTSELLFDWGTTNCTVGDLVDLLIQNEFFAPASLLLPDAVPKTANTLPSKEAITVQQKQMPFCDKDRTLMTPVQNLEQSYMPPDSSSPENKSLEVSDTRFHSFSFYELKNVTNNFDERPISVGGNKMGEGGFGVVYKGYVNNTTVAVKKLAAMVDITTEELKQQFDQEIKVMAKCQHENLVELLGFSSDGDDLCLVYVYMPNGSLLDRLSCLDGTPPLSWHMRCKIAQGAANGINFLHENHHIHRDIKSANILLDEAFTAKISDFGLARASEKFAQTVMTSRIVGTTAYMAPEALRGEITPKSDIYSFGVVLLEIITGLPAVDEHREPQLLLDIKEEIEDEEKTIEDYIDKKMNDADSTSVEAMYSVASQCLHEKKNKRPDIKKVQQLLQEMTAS
Chain of 5-hydroxytryptamine receptor 5A (Homo sapiens) (P47898 whole entry): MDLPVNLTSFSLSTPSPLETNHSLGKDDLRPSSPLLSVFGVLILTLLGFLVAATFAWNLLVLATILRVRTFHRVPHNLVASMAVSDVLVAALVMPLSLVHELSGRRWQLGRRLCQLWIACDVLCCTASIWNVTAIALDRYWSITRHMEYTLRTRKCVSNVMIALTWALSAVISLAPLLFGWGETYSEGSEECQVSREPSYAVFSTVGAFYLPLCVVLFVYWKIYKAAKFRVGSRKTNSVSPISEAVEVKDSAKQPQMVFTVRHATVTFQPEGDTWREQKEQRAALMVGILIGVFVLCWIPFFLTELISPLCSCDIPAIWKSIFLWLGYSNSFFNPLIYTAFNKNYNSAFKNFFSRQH

Q: For `COc1nc2ccc([C@@](O)(c3ccccc3)C3CCN(C(C)=O)CC3)cc2c(Cl)c1Cc1ccc(-n2cccn2)cc1` [JNJ-54119936], which inhibition [1] is on record?
A: 38%

Q: And the inhibition [2]?
A: 3%

Q: And the inhibition [3]?
A: 3%

Q: What about the inhibition [4] of the same molecule?
A: 3%

Q: And the inhibition ([5]; Compound concentration 1.0 uM)?
A: 18%

Q: And the inhibition ([5]; Compound concentration 10.0 uM)?
A: 30%

Q: And the inhibition [6]?
A: -3.25%

Q: What about the inhibition ([7]; Compound concentration 1.0 uM) of the same molecule?
A: 12%

Q: What about the inhibition ([7]; Compound concentration 10.0 uM) of the same molecule?
A: 21%

Q: And the inhibition [8]?
A: 12%

Q: What about the inhibition [9] of the same molecule?
A: 4%

Q: What about the inhibition [10] of the same molecule?
A: 10.3%

Q: And the inhibition [11]?
A: 6.64%

Q: What about the inhibition [12] of the same molecule?
A: -0.46%

Q: What about the inhibition [13] of the same molecule?
A: -4%

Q: And the inhibition [14]?
A: 31.2%

Q: And the inhibition [15]?
A: 16%

Q: What about the inhibition ([16]; Compound concentration 0.3 uM) of the same molecule?
A: 5.39%

Q: And the inhibition ([16]; Compound concentration 1.0 uM)?
A: 8.98%

Q: What about the inhibition ([16]; Compound concentration 3.0 uM) of the same molecule?
A: 11%

Q: What about the qKD [17] of the same molecule?
A: > 75 µM

Q: What about the inhibition [18] of the same molecule?
A: 6%

Q: And the IC50 [19]?
A: 5.4 µM

Q: What about the inhibition [20] of the same molecule?
A: 28.2%

Q: And the inhibition [21]?
A: 5.4%

Q: And the inhibition [22]?
A: 4%

Q: And the inhibition ([23]; Compound concentration 0.3 uM)?
A: -6.97%

Q: And the inhibition ([23]; Compound concentration 1.0 uM)?
A: -0.284%

Q: What about the inhibition [24] of the same molecule?
A: -2.36%

Q: And the inhibition [25]?
A: -1%
